Experimental data from patent US6737511B1 (priority 1999, dated 2004).

What was measured:
[1] = tested on: HeLa cells; format: cell-based, human; conditions: chloroquine 10 μM
[2] = tested on: Cos-7 cells; format: cell-based, monkey
[3] = tested on: J774 cells; format: cell-based

Q: Which “effect on Bcl-xL-DTR inhibition of poliovirus-induced cell death” value [1] does the source give for CCN(CC)CCCC(C)Nc1ccnc2cc(Cl)ccc12 (stereo not shown) [Chloroquine] here?
A: Its value is “did not block the activity of Bcl-xL-DTR to inhibit poliovirus-induced cell death”.

Q: Which results are given for CN[C@@H]1C[C@H]2O[C@@](C)([C@@H]1OC)n1c3ccccc3c3c4c(c5c6ccccc6n2c5c31)C(=O)NC4 [STS, staurosporine]?
A: Cell death (%) [2]: 24%; apoptosis induced in J774 cells [3]: died by apoptosis over the following 36 hours

Q: Which “effect on anti-apoptosis activity of Bcl-xL-DTR” value [2] does the source give for brefeldin A here?
A: The value was “does block the anti-apoptosis activity of Bcl-xL-DTR”.
